Measured values: patent publication US7745575B1 (Cellpep Pharma Inc., priority 2004, dated 2010)
Bridge positions count the residues as written; N and C are the ends. Ends that are not written are not given here. Peptide text beside a SMILES is read from it.

Key:
[1] = toxicity in vivo, LD50 after intracerebroventricular injection; details: mouse, icv or intrathecal, 20 g C57/BL6 mice
Procedure: Groups of six to eight mice per dose were injected with 5 μl peptide solution containing 0.1% (w/v) bovine serum albumin and 0.9% (w/v) NaCl. The LD50 values are set out in Table 5.

hKv3.2 [2] = target: T1, hKv3.2 (Homo sapiens, UniProt Q96PR1); test: patch-clamp whole-cell recording, K+ current block; type: cell-based
T1 sequence (Q96PR1 1-638): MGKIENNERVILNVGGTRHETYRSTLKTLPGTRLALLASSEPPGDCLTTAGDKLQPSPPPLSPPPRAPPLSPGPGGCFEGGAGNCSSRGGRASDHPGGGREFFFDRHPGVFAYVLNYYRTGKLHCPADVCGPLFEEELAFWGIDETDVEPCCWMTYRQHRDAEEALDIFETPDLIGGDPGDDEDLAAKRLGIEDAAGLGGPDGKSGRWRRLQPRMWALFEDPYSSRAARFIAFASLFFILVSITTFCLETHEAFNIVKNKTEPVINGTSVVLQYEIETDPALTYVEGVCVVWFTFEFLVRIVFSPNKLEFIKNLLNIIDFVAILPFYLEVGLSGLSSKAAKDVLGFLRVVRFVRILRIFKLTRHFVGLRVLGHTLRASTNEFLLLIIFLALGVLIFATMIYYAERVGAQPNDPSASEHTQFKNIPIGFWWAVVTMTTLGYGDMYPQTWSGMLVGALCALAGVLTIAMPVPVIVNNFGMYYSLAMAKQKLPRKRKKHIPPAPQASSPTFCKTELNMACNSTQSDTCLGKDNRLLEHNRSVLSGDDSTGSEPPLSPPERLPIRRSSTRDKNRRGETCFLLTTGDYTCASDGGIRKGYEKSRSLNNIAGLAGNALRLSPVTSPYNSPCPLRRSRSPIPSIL
Procedure: (§1) Electrophysiological experiments were carried out at 22-24° C. using the patch-clamp whole-cell recording mode. Cells were bathed with mammalian Ringer's solution (in mM): 160 NaCl, 4.5 KCl, 2 CaCl2, 1 MgCl2, and 10 HEPES (pH 7.4 with NaOH), with an osmolarity of 290-320 mOsm. […] A syringe-driven perfusion device was used to exchange the external recording bath solution. Two internal pipette solutions were used, one for measuring voltage-gated K^+ currents that contained (in mM): 155 KF, 2 MgCl2, 10 HEPES, and 10 EGTA (pH 7.2 with KOH), with an osmolarity of 290-320 mOsm and another for measuring Ca^2+-activated K^+ currents that contained (in mM): 135 K-aspartate, 8.7 CaCl2, 2 MgCl2, 10 EGTA, 10 HEPES (pH 7.2 with KOH), with an osmolarity of 290-320 mOsm. A free [Ca^2+]i of 1 μM was calculated. All currents through voltage-gated K^+ channels were elicited by 200 ms depolarising voltage steps from −80 to +40 mV. Potassium currents through KCa1.1, KCa2.1 and KCa3.1 were elicited by 1 μM internal [Ca^2+]i and 400 ms voltage ramps from −120 to 0 mV (for KCa3.1 channel and KCa1.1 channel) and from −120 to +40 mV (for KCa2.1 channel). Electrodes were pulled from glass capillaries (Science Products, Germany), and fire-polished to resistances of 2.5-5 MΩ. Membrane currents were measured with an EPC-9 or EPC-10 patch-clamp amplifier (HEKA Elektronik, Lambrecht, Germany) interfaced to a Macintosh computer running acquisition and analysis software (Pulse and PulseFit). When voltage-gated K^+ currents were measured, the capacitive and leak currents were subtracted using a P/10 procedure. Series resistance compensation (>80%) was used for currents above 2 nA. The holding potential was −80 mV in all experiments.

mKv1.3 [3] = target: mKv1.3 (Mus musculus, UniProt P16390); test: patch-clamp whole-cell recording, K+ current block; type: cell-based
Sequence of mKv1.3 (Mus musculus, UniProt P16390) (P16390 whole entry): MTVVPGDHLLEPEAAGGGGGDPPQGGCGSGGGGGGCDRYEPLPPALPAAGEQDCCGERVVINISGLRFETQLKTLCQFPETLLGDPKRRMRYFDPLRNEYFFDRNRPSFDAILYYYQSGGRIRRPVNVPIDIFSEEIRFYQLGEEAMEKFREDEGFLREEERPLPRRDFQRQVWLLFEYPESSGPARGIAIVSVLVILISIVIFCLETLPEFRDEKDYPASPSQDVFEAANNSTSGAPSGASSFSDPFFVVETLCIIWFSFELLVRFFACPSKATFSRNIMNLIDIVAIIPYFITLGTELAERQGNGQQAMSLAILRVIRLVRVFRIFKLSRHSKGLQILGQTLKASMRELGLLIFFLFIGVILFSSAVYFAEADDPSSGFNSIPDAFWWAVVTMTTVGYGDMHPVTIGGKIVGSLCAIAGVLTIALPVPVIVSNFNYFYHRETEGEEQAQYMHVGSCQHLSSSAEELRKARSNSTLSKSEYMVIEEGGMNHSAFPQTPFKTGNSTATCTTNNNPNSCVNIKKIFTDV
Procedure: as §1

hIK1 (KCa3.1) = hIK1 (KCa3.1) (Homo sapiens, UniProt O15554); test: patch-clamp whole-cell recording, Ca2+-activated K+ current block; type: cell-based
Sequence of hIK1 (KCa3.1) (O15554 whole entry): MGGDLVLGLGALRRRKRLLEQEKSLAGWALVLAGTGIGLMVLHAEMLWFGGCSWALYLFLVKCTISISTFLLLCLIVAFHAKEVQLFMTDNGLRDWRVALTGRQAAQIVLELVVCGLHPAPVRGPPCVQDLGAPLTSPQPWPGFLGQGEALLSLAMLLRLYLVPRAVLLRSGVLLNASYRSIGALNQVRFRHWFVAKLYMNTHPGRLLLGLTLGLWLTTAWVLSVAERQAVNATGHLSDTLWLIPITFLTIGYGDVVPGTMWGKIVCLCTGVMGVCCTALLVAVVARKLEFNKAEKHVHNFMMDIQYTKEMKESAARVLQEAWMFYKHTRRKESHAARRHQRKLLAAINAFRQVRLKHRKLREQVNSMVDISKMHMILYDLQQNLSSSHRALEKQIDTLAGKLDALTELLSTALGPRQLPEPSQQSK
Procedure: as §1

hKv1.2 = hKv1.2 (human (only by the printed prefix h), UniProt P16389); test: cell-based or functional assay
hIK1 = hIK1 (human (only by the printed prefix h), UniProt O15554); test: cell-based or functional assay
mKv1.3 [4] = target: mKv1.3 (mouse (only by the printed prefix m), UniProt P16390); test: cell-based or functional assay
mKv1.1 = mKv1.1 (mouse (only by the printed prefix m), UniProt P16388); test: cell-based or functional assay
hKv3.2 [5] = target: T2, hKv3.2 (human (only by the printed prefix h), UniProt Q96PR1); test: cell-based or functional assay
T2 sequence: T1 sequence (Q96PR1 1-638)

CC[C@H](C)[C@@H]1NC(=O)[C@H](CCCCN)NC(=O)[C@@H](NC(=O)[C@H](CCCCN)NC(=O)[C@@H](NC(=O)[C@H](CC(N)=O)NC(=O)[C@@H](NC(=O)[C@@H](NC(=O)[C@@H](NC(=O)CN)C(C)C)[C@@H](C)CC)[C@@H](C)CC)C(C)C)CSSC[C@@H]2NC(=O)[C@H](CCCCN)NC(=O)CNC(=O)[C@H](Cc3ccccc3)NC(=O)[C@H](CCCNC(=N)N)NC(=O)[C@H](CCSC)NC(=O)CNC(=O)[C@H](C)NC(=O)[C@H](CC(=O)O)NC(=O)[C@H](CCCCN)NC(=O)[C@@H]3CSSC[C@@H](C(=O)N[C@H](C(=O)N4CCC[C@H]4C(=O)N[C@@H](CCCCN)C(=O)O)[C@@H](C)O)NC(=O)[C@H](Cc4c[nH]cn4)NC(=O)[C@H](CSSC[C@H](NC(=O)[C@H](CCC(N)=O)NC(=O)[C@H](CCCNC(=N)N)NC(=O)[C@H](CO)NC1=O)C(=O)N[C@@H](CC(C)C)C(=O)N[C@@H](CCCCN)C(=O)N1CCC[C@H]1C(=O)N3)NC(=O)[C@H](CCCCN)NC(=O)CNC(=O)[C@H](CC(N)=O)NC(=O)[C@H](CCSC)NC2=O (H-GVIINVKCKISRQCLKPCKDAGMRFGKCMNGKCHCTPK-OH; disulfide 8-28, 14-33, 18-35)
LD50 [1]: 2.5 µg/kg | IC50 (hKv3.2 [2]): > 1000 nM | activity on Kv1.3 channel (in words) (mKv1.3 [3]): the most potent Kv1.3 channel blocker characterized so far | potency on the Kv1.3 channel relative to OsK1 (mKv1.3 [3]; compared with OsK1): about five times more potent | activity on IK1 (in words) (hIK1 (KCa3.1)): shares the same activity on IK1

CC[C@H](C)[C@@H]1NC(=O)[C@H](CCCCN)NC(=O)[C@@H](NC(=O)[C@H](CCCCN)NC(=O)[C@@H](NC(=O)[C@H](CC(N)=O)NC(=O)[C@@H](NC(=O)[C@H](CCCCN)NC(=O)[C@@H](NC(=O)CN)C(C)C)[C@@H](C)CC)C(C)C)CSSC[C@@H]2NC(=O)[C@H](CCCCN)NC(=O)CNC(=O)[C@H](Cc3ccccc3)NC(=O)[C@H](CCCNC(=N)N)NC(=O)[C@H](CCSC)NC(=O)CNC(=O)[C@H](C)NC(=O)[C@H](CC(=O)O)NC(=O)[C@H](CCCCN)NC(=O)[C@@H]3CSSC[C@@H](C(=O)N[C@H](C(=O)N4CCC[C@H]4C(=O)N[C@@H](CCCCN)C(N)=O)[C@@H](C)O)NC(=O)[C@H](Cc4c[nH]cn4)NC(=O)[C@H](CSSC[C@H](NC(=O)[C@H](CCC(N)=O)NC(=O)[C@H](CCCNC(=N)N)NC(=O)[C@H](CO)NC1=O)C(=O)N[C@@H](CC(C)C)C(=O)N[C@@H](CCCCN)C(=O)N1CCC[C@H]1C(=O)N3)NC(=O)[C@H](CCCCN)NC(=O)CNC(=O)[C@H](CC(N)=O)NC(=O)[C@H](CCSC)NC2=O (H-GVKINVKCKISRQCLKPCKDAGMRFGKCMNGKCHCTPK-NH2; disulfide 8-28, 14-33, 18-35)
LD50 [1]: 2.25 µg/kg | IC50 (hKv3.2 [2]): > 1000 nM | IC50 (hIK1 (KCa3.1)): > 1000 nM

CC[C@H](C)[C@@H]1NC(=O)[C@H](CCCCN)NC(=O)[C@@H](NC(=O)[C@H](CCCCN)NC(=O)[C@@H](NC(=O)[C@H](CC(N)=O)NC(=O)[C@@H](NC(=O)[C@@H](NC(=O)[C@@H](NC(=O)CNC(C)=O)C(C)C)[C@@H](C)CC)[C@@H](C)CC)C(C)C)CSSC[C@@H]2NC(=O)[C@H](CCCCN)NC(=O)CNC(=O)[C@H](Cc3ccccc3)NC(=O)[C@H](CCCNC(=N)N)NC(=O)[C@H](CCSC)NC(=O)CNC(=O)[C@H](C)NC(=O)[C@H](CCCCN)NC(=O)[C@H](CCCCN)NC(=O)[C@@H]3CSSC[C@@H](C(=O)N[C@H](C(=O)N4CCC[C@H]4C(=O)N[C@@H](CCCCN)C(N)=O)[C@@H](C)O)NC(=O)[C@H](Cc4c[nH]cn4)NC(=O)[C@H](CSSC[C@H](NC(=O)[C@H](CCC(N)=O)NC(=O)[C@H](CCCNC(=N)N)NC(=O)[C@H](CO)NC1=O)C(=O)N[C@@H](CC(C)C)C(=O)N[C@@H](CCC(=O)O)C(=O)N1CCC[C@H]1C(=O)N3)NC(=O)[C@H](CCCCN)NC(=O)CNC(=O)[C@H](CC(N)=O)NC(=O)[C@H](CCSC)NC2=O [Ac-OsK1-NH2]
LD50 [1]: 11 µg/kg | IC50 (hKv3.2 [2]): > 1000 nM

VIINVKCKISRQCLEPCKKAGMRFGKCMNGKCHCTPK-NH2 (ends and bridges not checked) [[Δ^1]-OsK1-NH2]
ID50 (hKv1.2): 85 nM | ID50 (hIK1): 620 nM | ID50 (mKv1.3 [4]): 0.038 nM | ID50 (mKv1.1): 2.06 nM | ID50 (hKv3.2 [5]): > 1 µM
